Among the data in patent US20210317134A1, “UBIQUITIN-SPECIFIC-PROCESSING PROTEASE 7 (USP7) MODULATORS AND USES THEREOF” (RAPT THERAPEUTICS, INC., priority 2019, published 2021) are IC50 values, retold here.

Bounds are passed on as bounds.

In the assay the target is USP7 (Homo sapiens, UniProt Q93009). The experiment in a line: USP7 inhibitory potency (Table 1). It counts as biochemical.
Sequence of USP7 (Q93009 whole entry): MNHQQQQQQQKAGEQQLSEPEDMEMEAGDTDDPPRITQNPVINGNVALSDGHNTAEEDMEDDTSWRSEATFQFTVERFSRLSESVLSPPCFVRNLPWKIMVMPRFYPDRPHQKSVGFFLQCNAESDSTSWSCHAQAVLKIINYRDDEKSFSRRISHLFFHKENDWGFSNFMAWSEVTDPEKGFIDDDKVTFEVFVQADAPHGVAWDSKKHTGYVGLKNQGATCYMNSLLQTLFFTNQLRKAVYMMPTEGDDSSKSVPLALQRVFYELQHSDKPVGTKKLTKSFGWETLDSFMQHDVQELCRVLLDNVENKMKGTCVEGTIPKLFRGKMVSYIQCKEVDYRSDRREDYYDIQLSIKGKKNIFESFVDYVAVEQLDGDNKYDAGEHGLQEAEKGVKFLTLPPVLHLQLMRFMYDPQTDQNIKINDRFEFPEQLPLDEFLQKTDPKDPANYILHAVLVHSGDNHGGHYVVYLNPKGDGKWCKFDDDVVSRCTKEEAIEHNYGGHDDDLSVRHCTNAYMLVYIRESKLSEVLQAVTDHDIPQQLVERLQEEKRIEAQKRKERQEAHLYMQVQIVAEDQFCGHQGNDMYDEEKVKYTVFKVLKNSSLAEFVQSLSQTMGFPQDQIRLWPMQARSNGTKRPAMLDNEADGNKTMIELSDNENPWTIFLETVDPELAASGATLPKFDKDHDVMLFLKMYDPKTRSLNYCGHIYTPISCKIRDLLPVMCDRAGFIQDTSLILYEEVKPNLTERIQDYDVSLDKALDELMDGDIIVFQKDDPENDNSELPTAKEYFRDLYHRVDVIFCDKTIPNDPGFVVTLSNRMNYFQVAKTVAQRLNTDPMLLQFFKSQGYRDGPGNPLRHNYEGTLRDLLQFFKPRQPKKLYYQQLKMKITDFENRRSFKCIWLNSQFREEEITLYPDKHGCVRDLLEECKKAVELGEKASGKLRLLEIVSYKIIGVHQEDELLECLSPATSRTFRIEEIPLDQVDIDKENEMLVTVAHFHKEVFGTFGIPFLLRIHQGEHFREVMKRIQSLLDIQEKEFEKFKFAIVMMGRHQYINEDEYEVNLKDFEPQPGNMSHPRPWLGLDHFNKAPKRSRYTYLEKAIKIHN
With `CN(C)S(=O)(=O)CCc1cc2nccc(-c3cc(Cl)cc4c3O[C@@H](C(=O)N3CCNCC3)C4)c2s1` [(R)-2-(7-(5-chloro-2-(piperazine-1-carbonyl)-2,3-dihydrobenzofuran-7-yl)thieno[3,2-b]pyridin-2-yl)-N,N-dimethylethane-1-sulfonamide], the IC50 is < 1 µM. In the case of `NS(=O)(=O)CCc1cc2nccc(-c3cc(Cl)cc4c3O[C@@H](C(=O)N3CCNCC3)C4)c2s1` [(R)-2-(7-(5-chloro-2-(piperazine-1-carbonyl)-2,3-dihydrobenzofuran-7-yl)thieno[3,2-b]pyridin-2-yl)ethane-1-sulfonamide] it was < 1 µM; in that of `O=C([C@H]1Cc2cc(Cl)cc(-c3ccnc4cc(CN5C(=O)c6ccccc6C5=O)sc34)c2O1)N1CCNCC1` [(R)-2-((7-(5-chloro-2-(piperazine-1-carbonyl)-2,3-dihydrobenzofuran-7-yl)thieno[3,2-b]pyridin-2-yl)methyl)isoindoline-1,3-dione], < 1 µM; in that of `CCc1cc2nccc(-c3cc(Cl)cc4c3O[C@@H](c3onc5c3CNCC5)C4)c2s1` [(R)-3-(5-chloro-7-(2-ethylthieno[3,2-b]pyridin-7-yl)-2,3-dihydrobenzofuran-2-yl)-4,5,6,7-tetrahydroisoxazolo[4,3-c]pyridine], < 1 µM.

With `Cc1cc2nccc(-c3cc(Cl)cc4c3O[C@@H](c3onc5c3CNCC5)C4)c2s1` [(R)-3-(5-chloro-7-(2-methylthieno[3,2-b]pyridin-7-yl)-2,3-dihydrobenzofuran-2-yl)-4,5,6,7-tetrahydroisoxazolo[4,3-c]pyridine], the IC50 is < 1 µM. In the case of `Cc1nc(-c2cc(Cl)cc3c2O[C@@H](c2onc4c2CNCC4)C3)c2sccc2n1` [(R)-3-(5-chloro-7-(2-methylthieno[3,2-d]pyrimidin-4-yl)-2,3-dihydrobenzofuran-2-yl)-4,5,6,7-tetrahydroisoxazolo[4,3-c]pyridine] it was 10 to 30 µM; in that of `CCC1(CC)Cc2nccc(-c3cc(Cl)cc4c3O[C@@H](c3onc5c3CNCC5)C4)c2C1` [(R)-3-(5-chloro-7-(6,6-diethyl-6,7-dihydro-5H-cyclopenta[b]pyridin-4-yl)-2,3-dihydrobenzofuran-2-yl)-4,5,6,7-tetrahydroisoxazolo[4,3-c]pyridine], 1 to 10 µM. Under `Clc1cc2c(c(-c3ncnc4c3CCC4)c1)O[C@@H](c1onc3c1CNCC3)C2` [(R)-3-(5-chloro-7-(6,7-dihydro-5H-cyclopenta[d]pyrimidin-4-yl)-2,3-dihydrobenzofuran-2-yl)-4,5,6,7-tetrahydroisoxazolo[4,3-c]pyridine] stands 10 to 30 µM. Under `Fc1ccc2nccc(-c3cc(Cl)cc4c3O[C@@H](c3onc5c3CNCC5)C4)c2c1` [(R)-3-(5-chloro-7-(6-fluoroquinolin-4-yl)-2,3-dihydrobenzofuran-2-yl)-4,5,6,7-tetrahydroisoxazolo[4,3-c]pyridine] stands < 1 µM. In the case of `COc1ccc2nccc(-c3cc(Cl)cc4c3O[C@@H](c3onc5c3CNCC5)C4)c2c1` [(R)-3-(5-chloro-7-(6-methoxyquinolin-4-yl)-2,3-dihydrobenzofuran-2-yl)-4,5,6,7-tetrahydroisoxazolo[4,3-c]pyridine], the IC50 lay in the range of 10 to 30 µM. Regarding `Cc1cc2ncnc(-c3cc(Cl)cc4c3O[C@@H](c3onc5c3CNCC5)C4)c2o1` [(R)-3-(5-chloro-7-(6-methylfuro[3,2-d]pyrimidin-4-yl)-2,3-dihydrobenzofuran-2-yl)-4,5,6,7-tetrahydroisoxazolo[4,3-c]pyridine], the IC50 was < 1 µM. Under `Cc1cc2ncnc(-c3cc(Cl)cc4c3O[C@@H](c3onc5c3CNCC5)C4)c2s1` [(R)-3-(5-chloro-7-(6-methylthieno[3,2-d]pyrimidin-4-yl)-2,3-dihydrobenzofuran-2-yl)-4,5,6,7-tetrahydroisoxazolo[4,3-c]pyridine] stands < 1 µM. In the case of `Cc1ccc(S(=O)(=O)N2Cc3nccc(-c4cc(Cl)cc5c4O[C@@H](c4onc6c4CNCC6)C5)c3C2)cc1` [(R)-3-(5-chloro-7-(6-tosyl-6,7-dihydro-5H-pyrrolo[3,4-b]pyridin-4-yl)-2,3-dihydrobenzofuran-2-yl)-4,5,6,7-tetrahydroisoxazolo[4,3-c]pyridine] it was 10 to 30 µM; in that of `CS(=O)(=O)c1ccc2c(-c3cc(Cl)cc4c3O[C@@H](c3onc5c3CNCC5)C4)ccnc2c1` [(R)-3-(5-chloro-7-(7-(methylsulfonyl)quinolin-4-yl)-2,3-dihydrobenzofuran-2-yl)-4,5,6,7-tetrahydroisoxazolo[4,3-c]pyridine], 1 to 10 µM. In the case of `FC(F)(F)c1ccc2c(-c3cc(Cl)cc4c3O[C@@H](c3onc5c3CNCC5)C4)ccnc2c1` [(R)-3-(5-chloro-7-(7-(trifluoromethyl)quinolin-4-yl)-2,3-dihydrobenzofuran-2-yl)-4,5,6,7-tetrahydroisoxazolo[4,3-c]pyridine] it was 1 to 10 µM. Regarding `Clc1cc2c(c(-c3ncnc4cc(Cl)ccc34)c1)O[C@@H](c1onc3c1CNCC3)C2` [(R)-3-(5-chloro-7-(7-chloroquinazolin-4-yl)-2,3-dihydrobenzofuran-2-yl)-4,5,6,7-tetrahydroisoxazolo[4,3-c]pyridine], the IC50 fell in the range of 1 to 10 µM.

`Clc1cc2c(c(-c3ccnc4cc(Cl)ccc34)c1)O[C@@H](c1onc3c1CNCC3)C2` [(R)-3-(5-chloro-7-(7-chloroquinolin-4-yl)-2,3-dihydrobenzofuran-2-yl)-4,5,6,7-tetrahydroisoxazolo[4,3-c]pyridine]: the IC50 is < 1 µM. Under `Fc1ccc2c(-c3cc(Cl)cc4c3O[C@@H](c3onc5c3CNCC5)C4)ccnc2c1` [(R)-3-(5-chloro-7-(7-fluoroquinolin-4-yl)-2,3-dihydrobenzofuran-2-yl)-4,5,6,7-tetrahydroisoxazolo[4,3-c]pyridine] stands < 1 µM; under `COc1ccc2c(-c3cc(Cl)cc4c3O[C@@H](c3onc5c3CNCC5)C4)ccnc2c1` [(R)-3-(5-chloro-7-(7-methoxyquinolin-4-yl)-2,3-dihydrobenzofuran-2-yl)-4,5,6,7-tetrahydroisoxazolo[4,3-c]pyridine], < 1 µM. In the case of `Fc1cccc2c(-c3cc(Cl)cc4c3O[C@@H](c3onc5c3CNCC5)C4)ccnc12` [(R)-3-(5-chloro-7-(8-fluoroquinolin-4-yl)-2,3-dihydrobenzofuran-2-yl)-4,5,6,7-tetrahydroisoxazolo[4,3-c]pyridine] it was 1 to 10 µM. Under `Clc1cc2c(c(-c3ncnc4ccoc34)c1)O[C@@H](c1onc3c1CNCC3)C2` [(R)-3-(5-chloro-7-(furo[3,2-d]pyrimidin-4-yl)-2,3-dihydrobenzofuran-2-yl)-4,5,6,7-tetrahydroisoxazolo[4,3-c]pyridine] stands < 1 µM. Molecule `CS(=O)(=O)N1CCc2noc([C@H]3Cc4cc(Cl)cc(-c5ncnc6ccoc56)c4O3)c2C1` [(R)-3-(5-chloro-7-(furo[3,2-d]pyrimidin-4-yl)-2,3-dihydrobenzofuran-2-yl)-5-(methylsulfonyl)-4,5,6,7-tetrahydroisoxazolo[4,3-c]pyridine] yielded an IC50 of 1 to 10 µM. Consider `CCN1CCc2noc([C@H]3Cc4cc(Cl)cc(-c5ncnc6ccoc56)c4O3)c2C1` [(R)-3-(5-chloro-7-(furo[3,2-d]pyrimidin-4-yl)-2,3-dihydrobenzofuran-2-yl)-5-ethyl-4,5,6,7-tetrahydroisoxazolo[4,3-c]pyridine], for which the IC50 fell in the range of 1 to 10 µM. Under `Clc1cc2c(c(-c3ccnc4ccnn34)c1)O[C@@H](c1onc3c1CNCC3)C2` [(R)-3-(5-chloro-7-(pyrazolo[1,5-a]pyrimidin-7-yl)-2,3-dihydrobenzofuran-2-yl)-4,5,6,7-tetrahydroisoxazolo[4,3-c]pyridine] stands < 1 µM.

As for `Clc1cc2c(c(-c3ccnc4ccccc34)c1)O[C@@H](c1onc3c1CNCC3)C2` [(R)-3-(5-chloro-7-(quinolin-4-yl)-2,3-dihydrobenzofuran-2-yl)-4,5,6,7-tetrahydroisoxazolo[4,3-c]pyridine], the IC50 was < 1 µM. For the molecule `Clc1cc2c(c(-c3ccnc4ccsc34)c1)O[C@@H](c1onc3c1CNCC3)C2` [(R)-3-(5-chloro-7-(thieno[3,2-b]pyridin-7-yl)-2,3-dihydrobenzofuran-2-yl)-4,5,6,7-tetrahydroisoxazolo[4,3-c]pyridine], the half-maximal inhibitory concentration (IC50) is < 1 µM.

For `FC(F)(F)CN1CCc2noc([C@H]3Cc4cc(Cl)cc(-c5ccnc6ccsc56)c4O3)c2C1` [(R)-3-(5-chloro-7-(thieno[3,2-b]pyridin-7-yl)-2,3-dihydrobenzofuran-2-yl)-5-(2,2,2-trifluoroethyl)-4,5,6,7-tetrahydroisoxazolo[4,3-c]pyridine], the IC50 is < 1 µM.

For `CCN1CCc2noc([C@H]3Cc4cc(Cl)cc(-c5ccnc6ccsc56)c4O3)c2C1` [(R)-3-(5-chloro-7-(thieno[3,2-b]pyridin-7-yl)-2,3-dihydrobenzofuran-2-yl)-5-ethyl-4,5,6,7-tetrahydroisoxazolo[4,3-c]pyridine], the IC50 is < 1 µM.

As for `CC(C)N1CCc2noc([C@H]3Cc4cc(Cl)cc(-c5ccnc6ccsc56)c4O3)c2C1` [(R)-3-(5-chloro-7-(thieno[3,2-b]pyridin-7-yl)-2,3-dihydrobenzofuran-2-yl)-5-isopropyl-4,5,6,7-tetrahydroisoxazolo[4,3-c]pyridine], the IC50 was < 1 µM. Under `CN1CCc2noc([C@H]3Cc4cc(Cl)cc(-c5ccnc6ccsc56)c4O3)c2C1` [(R)-3-(5-chloro-7-(thieno[3,2-b]pyridin-7-yl)-2,3-dihydrobenzofuran-2-yl)-5-methyl-4,5,6,7-tetrahydroisoxazolo[4,3-c]pyridine] stands < 1 µM. In the case of `Clc1cc2c(c(-c3ncnc4ccsc34)c1)O[C@@H](c1onc3c1CNCC3)C2` [(R)-3-(5-chloro-7-(thieno[3,2-d]pyrimidin-4-yl)-2,3-dihydrobenzofuran-2-yl)-4,5,6,7-tetrahydroisoxazolo[4,3-c]pyridine] it was < 1 µM; in that of `Clc1cc2c(c(-c3ccnc4cc(-c5cc[nH]n5)sc34)c1)O[C@@H](c1onc3c1CNCC3)C2` [(R)-3-(7-(2-(1H-pyrazol-3-yl)thieno[3,2-b]pyridin-7-yl)-5-chloro-2,3-dihydrobenzofuran-2-yl)-4,5,6,7-tetrahydroisoxazolo[4,3-c]pyridine], < 1 µM.
